In patent US9789146B1, “Synthesis of adansonia digitata nanoparticles” (KING SAUD UNIVERSITY, priority 2017, dated 2017):

Legend:
Assay in all cases: Antimicrobial activity, diffusion agar technique
Type in all cases: cell-based
Conditions in all cases: well diameter 6.0 mm, 100 μl tested
[1] = tested on: Aspergillus fumigatus (RCMB 02567)
Method: (§1) The antimicrobial effect of the Adansonia digitata nanoparticles was evaluated against different gram positive and gram negative bacteria as well as fungi. The test was done using the diffusion agar technique and the well diameter was 6.0 mm (100 μl was tested). The mean zone of inhibition in mm±Standard deviation beyond well diameter (6 mm) produced on a range of environmental and clinically pathogenic microorganisms.

[2] = tested on: Bacillis subtilis (RCMB 010068)
Method: as §1

[3] = tested on: Streptococcus pneumoniae (RCMB 010011)
Method: as §1

[4] = tested on: Escherichia coli (RCMB 010054)
Method: as §1

C[C@@H]1[C@H](O)[C@@H](C)/C=C/C=C/C=C/C=C/C=C/C=C/C=C/[C@H](O[C@@H]2O[C@H](C)[C@@H](O)[C@H](N)[C@@H]2O)C[C@@H]2O[C@](O)(C[C@@H](O)C[C@@H](O)[C@H](O)CC[C@@H](O)C[C@@H](O)CC(=O)O[C@H]1C)C[C@H](O)[C@H]2C(=O)O [Amphotericin B] was tested, and the “mean zone of inhibition ± Standard deviation beyond well diameter” value [1] was 21.7 ± 1.5 mm.
In the case of CC1(C)S[C@@H]2[C@H](NC(=O)[C@H](N)c3ccccc3)C(=O)N2[C@H]1C(=O)O [Ampicillin], the “mean zone of inhibition ± Standard deviation beyond well diameter” value [2] is reported as 31.3 ± 1.5 mm and the “mean zone of inhibition ± Standard deviation beyond well diameter” value [3] is reported as 21.0 ± 1.0 mm.
With Gentamicin the “mean zone of inhibition ± Standard deviation beyond well diameter” value [4] was 20.3 ± 0.58 mm.
